# Results: ChEMBL document CHEMBL4665869, “New thiazolopyrimidine as anticancer agents: Synthesis, biological evaluation, DNA binding, molecular modeling and ADMET study” (Bioorg Med Chem Lett, 2020)
# How the values were obtained:
# Malme-3M = assay: Growth inhibition of human Malme-3M cells at 10 uM relative to control; type: functional; conditions: read-out: GI
# HL-60(TB) = assay: Growth inhibition of human HL-60(TB) cells at 10 uM relative to control; type: functional; conditions: read-out: GI
# OVCAR-4 = assay: Growth inhibition of human OVCAR-4 cells at 10 uM relative to control; type: functional; conditions: read-out: GI
# MCF7 = assay: Growth inhibition of human MCF7 cells at 10 uM relative to control; type: functional; conditions: read-out: GI
# DNA = assay: Displacement of methyl green from DNA (unknown origin) assessed as DNA intercalation after 24 hrs by colorimetric assay; type: nucleic-acid assay
# BT-549 = assay: Growth inhibition of human BT-549 cells at 10 uM relative to control; type: functional; conditions: read-out: GI
# SR = assay: Growth inhibition of human SR cells at 10 uM relative to control; type: functional; conditions: read-out: GI
# A549 = assay: Growth inhibition of human A549 cells at 10 uM relative to control; type: functional; conditions: read-out: GI
# OVCAR-5 = assay: Growth inhibition of human OVCAR-5 cells at 10 uM relative to control; type: functional; conditions: read-out: GI
# HT-29 = assay: Growth inhibition of human HT-29 cells at 10 uM relative to control; type: functional; conditions: read-out: GI
# COLO 205 = assay: Growth inhibition of human COLO 205 cells at 10 uM relative to control; type: functional; conditions: read-out: GI
# SK-OV-3 = assay: Growth inhibition of human SK-OV-3 cells at 10 uM relative to control; type: functional; conditions: read-out: GI
# NCI-H460 = assay: Growth inhibition of human NCI-H460 cells at 10 uM relative to control; type: functional; conditions: read-out: GI
# UACC-62 = assay: Growth inhibition of human UACC-62 cells at 10 uM relative to control; type: functional; conditions: read-out: GI
# HOP-62 = assay: Growth inhibition of human HOP-62 cells at 10 uM relative to control; type: functional; conditions: read-out: GI
# SF-295 = assay: Growth inhibition of human SF-295 cells at 10 uM relative to control; type: functional; conditions: read-out: GI
# NCI-H522 = assay: Growth inhibition of human NCI-H522 cells at 10 uM relative to control; type: functional; conditions: read-out: GI
# SK-MEL-28 = assay: Growth inhibition of human SK-MEL-28 cells at 10 uM relative to control; type: functional; conditions: read-out: GI
# LOX IMVI = assay: Growth inhibition of human LOX IMVI cells at 10 uM relative to control; type: functional; conditions: read-out: GI
# HOP-92 = assay: Growth inhibition of human HOP-92 cells at 10 uM relative to control; type: functional; conditions: read-out: GI
# KM12 = assay: Growth inhibition of human KM12 cells at 10 uM relative to control; type: functional; conditions: read-out: GI
# CAKI-1 = assay: Growth inhibition of human CAKI-1 cells at 10 uM relative to control; type: functional; conditions: read-out: GI
# T47D = assay: Growth inhibition of human T47D cells at 10 uM relative to control; type: functional; conditions: read-out: GI
# SN12C = assay: Growth inhibition of human SN12C cells at 10 uM relative to control; type: functional; conditions: read-out: GI
# ACHN = assay: Growth inhibition of human ACHN cells at 10 uM relative to control; type: functional; conditions: read-out: GI
# NCI/ADR-RES = assay: Growth inhibition of human NCI/ADR-RES cells at 10 uM relative to control; type: functional; conditions: read-out: GI
# UACC-257 = assay: Growth inhibition of human UACC-257 cells at 10 uM relative to control; type: functional; conditions: read-out: GI
# HCT-15 = assay: Growth inhibition of human HCT-15 cells at 10 uM relative to control; type: functional; conditions: read-out: GI
# SNB-19 = assay: Growth inhibition of human SNB-19 cells at 10 uM relative to control; type: functional; conditions: read-out: GI
# SF-268 = assay: Growth inhibition of human SF-268 cells at 10 uM relative to control; type: functional; conditions: read-out: GI
# MOLT-4 = assay: Growth inhibition of human MOLT-4 cells at 10 uM relative to control; type: functional; conditions: read-out: GI
# MDA-MB-231 = assay: Growth inhibition of human MDA-MB-231 cells at 10 uM relative to control; type: functional; conditions: read-out: GI
# HCT-116 = assay: Growth inhibition of human HCT-116 cells at 10 uM relative to control; type: functional; conditions: read-out: GI
# SK-MEL-5 = assay: Growth inhibition of human SK-MEL-5 cells at 10 uM relative to control; type: functional; conditions: read-out: GI
# RXF 393 = assay: Growth inhibition of human RXF 393 cells at 10 uM relative to control; type: functional; conditions: read-out: GI
# NCI-H23 = assay: Growth inhibition of human NCI-H23 cells at 10 uM relative to control; type: functional; conditions: read-out: GI
# A498 = assay: Growth inhibition of human A498 cells at 10 uM relative to control; type: functional; conditions: read-out: GI
# IGROV-1 = assay: Growth inhibition of human IGROV-1 cells at 10 uM relative to control; type: functional; conditions: read-out: GI
# DU-145 = assay: Growth inhibition of human DU-145 cells at 10 uM relative to control; type: functional; conditions: read-out: GI
# SW-620 = assay: Growth inhibition of human SW-620 cells at 10 uM relative to control; type: functional; conditions: read-out: GI
# SF-539 = assay: Growth inhibition of human SF-539 cells at 10 uM relative to control; type: functional; conditions: read-out: GI
# OVCAR-8 = assay: Growth inhibition of human OVCAR-8 cells at 10 uM relative to control; type: functional; conditions: read-out: GI
# K562 = assay: Growth inhibition of human K562 cells at 10 uM relative to control; type: functional; conditions: read-out: GI
# SNB-75 = assay: Growth inhibition of human SNB-75 cells at 10 uM relative to control; type: functional; conditions: read-out: GI
# MDA-MB-435 = assay: Growth inhibition of human MDA-MB-435 cells at 10 uM relative to control; type: functional; conditions: read-out: GI
# SK-MEL-2 = assay: Growth inhibition of human SK-MEL-2 cells at 10 uM relative to control; type: functional; conditions: read-out: GI
# UO-31 = assay: Growth inhibition of human UO-31 cells at 10 uM relative to control; type: functional; conditions: read-out: GI
# CCRF-CEM = assay: Growth inhibition of human CCRF-CEM cells at 10 uM relative to control; type: functional; conditions: read-out: GI
# RPMI-8226 = assay: Growth inhibition of human RPMI-8226 cells at 10 uM relative to control; type: functional; conditions: read-out: GI
# U-251 = assay: Growth inhibition of human U-251 cells at 10 uM relative to control; type: functional; conditions: read-out: GI
# Hs-578T = assay: Growth inhibition of human Hs-578T cells at 10 uM relative to control; type: functional; conditions: read-out: GI
# M14 = assay: Growth inhibition of human M14 cells at 10 uM relative to control; type: functional; conditions: read-out: GI
# NCI-H322M = assay: Growth inhibition of human NCI-H322M cells at 10 uM relative to control; type: functional; conditions: read-out: GI
# 786-0 = assay: Growth inhibition of human 786-0 cells at 10 uM relative to control; type: functional; conditions: read-out: GI
# TK-10 = assay: Growth inhibition of human TK-10 cells at 10 uM relative to control; type: functional; conditions: read-out: GI
# MDA-MB-468 = assay: Growth inhibition of human MDA-MB-468 cells at 10 uM relative to control; type: functional; conditions: read-out: GI
# NCI-H226 = assay: Growth inhibition of human NCI-H226 cells at 10 uM relative to control; type: functional; conditions: read-out: GI
# HCC 2998 = assay: Growth inhibition of human HCC 2998 cells at 10 uM relative to control; type: functional; conditions: read-out: GI
structure (smiles),measurement,setting,value
COc1ccc(/C=C/C2=CC(c3ccc(OC)c(OC)c3)N3C=CSC3=N2)cc1OC (centres undefined),inhibition of growth at 10 µM,Malme-3M,< 10%
same,inhibition of growth at 10 µM,HL-60(TB),< 10%
same,inhibition of growth at 10 µM,OVCAR-4,< 10%
same,inhibition of growth at 10 µM,MCF7,< 10%
same,IC50,DNA,30.05 µg/mL
same,inhibition of growth at 10 µM,BT-549,< 10%
same,inhibition of growth at 10 µM,SR,13.8%
same,inhibition of growth at 10 µM,A549,< 10%
same,inhibition of growth at 10 µM,OVCAR-5,< 10%
same,inhibition of growth at 10 µM,HT-29,< 10%
same,inhibition of growth at 10 µM,COLO 205,< 10%
same,inhibition of growth at 10 µM,SK-OV-3,< 10%
same,inhibition of growth at 10 µM,NCI-H460,< 10%
same,inhibition of growth at 10 µM,UACC-62,< 10%
same,inhibition of growth at 10 µM,HOP-62,< 10%
same,inhibition of growth at 10 µM,SF-295,< 10%
same,inhibition of growth at 10 µM,NCI-H522,< 10%
same,inhibition of growth at 10 µM,SK-MEL-28,< 10%
same,inhibition of growth at 10 µM,LOX IMVI,< 10%
same,inhibition of growth at 10 µM,HOP-92,< 10%
same,inhibition of growth at 10 µM,KM12,< 10%
same,inhibition of growth at 10 µM,CAKI-1,< 10%
same,inhibition of growth at 10 µM,T47D,< 10%
same,inhibition of growth at 10 µM,SN12C,< 10%
same,inhibition of growth at 10 µM,ACHN,< 10%
same,inhibition of growth at 10 µM,NCI/ADR-RES,< 10%
same,inhibition of growth at 10 µM,UACC-257,12.8%
same,inhibition of growth at 10 µM,HCT-15,< 10%
same,inhibition of growth at 10 µM,SNB-19,< 10%
same,inhibition of growth at 10 µM,SF-268,< 10%
same,inhibition of growth at 10 µM,MOLT-4,< 10%
same,inhibition of growth at 10 µM,MDA-MB-231,< 10%
same,inhibition of growth at 10 µM,HCT-116,< 10%
same,inhibition of growth at 10 µM,SK-MEL-5,< 10%
same,inhibition of growth at 10 µM,RXF 393,< 10%
same,inhibition of growth at 10 µM,NCI-H23,< 10%
same,inhibition of growth at 10 µM,A498,25.6%
same,inhibition of growth at 10 µM,IGROV-1,< 10%
same,inhibition of growth at 10 µM,DU-145,< 10%
same,inhibition of growth at 10 µM,SW-620,< 10%
same,inhibition of growth at 10 µM,SF-539,< 10%
same,inhibition of growth at 10 µM,OVCAR-8,< 10%
same,inhibition of growth at 10 µM,K562,< 10%
same,inhibition of growth at 10 µM,SNB-75,< 10%
same,inhibition of growth at 10 µM,MDA-MB-435,< 10%
same,inhibition of growth at 10 µM,SK-MEL-2,< 10%
same,inhibition of growth at 10 µM,UO-31,11.3%
same,inhibition of growth at 10 µM,CCRF-CEM,< 10%
same,inhibition of growth at 10 µM,RPMI-8226,< 10%
same,inhibition of growth at 10 µM,U-251,< 10%
same,inhibition of growth at 10 µM,Hs-578T,< 10%
same,inhibition of growth at 10 µM,M14,< 10%
same,inhibition of growth at 10 µM,NCI-H322M,< 10%
same,inhibition of growth at 10 µM,786-0,< 10%
same,inhibition of growth at 10 µM,TK-10,< 10%
same,inhibition of growth at 10 µM,MDA-MB-468,< 10%
same,inhibition of growth at 10 µM,NCI-H226,< 10%
same,inhibition of growth at 10 µM,HCC 2998,< 10%
CC1=CN2C(=NC(/C=C/c3cccs3)=CC2c2cccs2)S1 (centres undefined),IC50,DNA,76.15 µg/mL
CCOC(=O)C1=CSC2=NC(/C=C/c3cccs3)=CC(c3cccs3)N12 (centres undefined),IC50,DNA,66.01 µg/mL
CCOC(=O)C1=CSC2=NC(/C=C/c3ccc(OC)cc3)=CC(c3ccc(OC)cc3)N12 (centres undefined),IC50,DNA,28.38 µg/mL
Clc1ccc(/C=C/C2=CC(c3ccc(Cl)cc3)N3C=CSC3=N2)cc1 (centres undefined),IC50,DNA,56.33 µg/mL
Cc1ccc(/C=C/C2=CC(c3ccc(C)cc3)N3C=CSC3=N2)cc1 (centres undefined),IC50,DNA,62.74 µg/mL
CC1=CSC2=NC(/C=C/c3ccc(Cl)cc3)=CC(c3ccc(Cl)cc3)N12 (centres undefined),IC50,DNA,50.91 µg/mL
